Laboratory results as given in publication PMC10992382, “Discovery of a readily heterologously expressed Rubisco from the deep sea with potential for CO2 capture” (Bioresources and Bioprocessing, 2021).

Biological target: T1, 7002 Rubisco (Picosynechococcus sp. PCC 7002, UniProt Q44176)
T1 construct: gene cbbL; C-terminal His6 tag on large subunit; large and small subunits co-expressed with chaperone RbcX from pET30a in E. coli BL21(DE3); hexadecamer; with Ribulose bisphosphate carboxylase small subunit
T1 sequence (Q44176 whole entry): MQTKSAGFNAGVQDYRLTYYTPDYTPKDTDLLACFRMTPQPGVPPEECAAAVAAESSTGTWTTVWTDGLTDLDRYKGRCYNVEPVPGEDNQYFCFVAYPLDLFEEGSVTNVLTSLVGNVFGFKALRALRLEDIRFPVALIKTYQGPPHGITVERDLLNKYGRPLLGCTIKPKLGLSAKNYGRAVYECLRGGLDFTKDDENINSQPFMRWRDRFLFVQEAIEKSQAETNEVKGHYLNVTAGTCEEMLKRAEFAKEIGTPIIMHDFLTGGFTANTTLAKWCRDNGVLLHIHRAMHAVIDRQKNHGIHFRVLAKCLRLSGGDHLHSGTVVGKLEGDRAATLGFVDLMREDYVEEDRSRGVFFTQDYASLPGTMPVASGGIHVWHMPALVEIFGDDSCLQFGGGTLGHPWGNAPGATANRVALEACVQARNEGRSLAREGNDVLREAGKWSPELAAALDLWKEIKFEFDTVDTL
T1 sequence (Q44178 whole entry, further chain): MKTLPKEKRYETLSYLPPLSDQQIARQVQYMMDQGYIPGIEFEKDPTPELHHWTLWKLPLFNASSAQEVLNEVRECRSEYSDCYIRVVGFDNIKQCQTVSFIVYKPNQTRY
Assay: […]-CABP active-site binding assay
Settings: labelled compound; active-site titration only

With `O=C(O)[C@@](O)(COP(=O)(O)O)[C@H](O)[C@H](O)COP(=O)(O)O` [CABP, 2-carboxyarabinitol-1,5-diphosphate] the “14C-CABP active-site binding assay” value was “Active sites of Rubisco in purified enzymes were determined as reported”.
